The results in this text go back to US20240190892A1, “PLASMA KALLIKREIN INHIBITORS” (Merck Sharp & Dohme LLC, priority 2021, published 2024).

The target in one experiment is Coagulation factor XIa (Homo sapiens (Human), UniProt P03951). Kind of experiment: Factor XIa Assay. In kind it is biochemical. Conditions: human factor XIa 0.04 nM, substrate GPR-AFC, 30 min pre-incubation at 25° C., pH 7.4; read-out: FXIa IC50. The protocol: (§1) The effectiveness of a compound of the present invention as an inhibitor of Coagulation factor XIa can be determined using a relevant purified serine protease, and an appropriate synthetic substrate. The rate of hydrolysis of the chromogenic or fluorogenic substrate by the relevant serine protease was measured both in the absence and presence of compounds of the present invention. Assays were conducted at rt or at 37° C. […] A decrease in the rate of fluorescence change in the presence of inhibitor is indicative of enzyme inhibition. Such methods are known to one skilled in the art. The results of this assay are expressed as the half-maximal inhibitory concentrations (IC50), or the inhibitory constant, Ki.
Compounds were pre-incubated for 30 min at 25° C. with human (0.04 nM) factor XIa in 50 mM HEPES buffer with 150 mM sodium chloride, 5 mM calcium chloride, 0.1% PEG 8000, pH 7.4. factor XIa enzymatic activity was determined by addition of the substrate glycine-proline-arginine-7-amido-4-trifluoromethylcoumarin (GPR-AFC) and measurement of the fluorescence at 400/505 nm after a 60 min incubation at 25° C. The % inhibition for each data point was calculated from the data and analyzed using the log (inhibitor) vs. response four parameters equation to determine the half-maximal inhibitory concentrations (IC50). The IC50 were converted to equilibrium inhibitory constants (Ki) using the Cheng-Prusoff equation.

For another experiment, the target named is Human plasma kallikrein (Homo sapiens (Human), UniProt P03952). As to the kind of experiment: Plasma Kallikrein Assay. In kind it is biochemical. Particulars: purified Human plasma kallikrein 0.5 nM, substrate Acetyl-K-P-R-AFC, pH 7.4; read-out: PKal IC50. The protocol:
as §1, with “plasma kallikrein” for “Coagulation factor XIa”
Plasma kallikrein determinations were made in 50 mM HEPES buffer at pH 7.4 containing 150 mM NaCl, 5 mM CaCl2, and 0.1% PEG 8000 (polyethylene glycol; Fisher Scientific). Determinations were made using purified Human plasma kallikrein at a final concentration of 0.5 nM (Enzyme Research Laboratories) and the synthetic substrate, Acetyl-K-P-R-AFC (Sigma #C6608) at a concentration of […].
Activity assays were performed by diluting a stock solution of substrate at least tenfold to a final concentration ≤0.2 Km into a solution containing enzyme or enzyme equilibrated with inhibitor. Times required to achieve equilibration between enzyme and inhibitor were determined in control experiments. The reactions were performed under linear progress curve conditions and fluorescence increase measured at 405 Ex/510 Em nm. Values were converted to percent inhibition of the control reaction (after subtracting 100% Inhibition value). IC50 was determined by inflection point from a four parameter logistic curve fit. Ki was calculated using the Cheng Prusoff equation, Ki=IC50/(1+[S]/Km)).

Human plasma kallikrein, sequence (P03952 391-638 limits assumed): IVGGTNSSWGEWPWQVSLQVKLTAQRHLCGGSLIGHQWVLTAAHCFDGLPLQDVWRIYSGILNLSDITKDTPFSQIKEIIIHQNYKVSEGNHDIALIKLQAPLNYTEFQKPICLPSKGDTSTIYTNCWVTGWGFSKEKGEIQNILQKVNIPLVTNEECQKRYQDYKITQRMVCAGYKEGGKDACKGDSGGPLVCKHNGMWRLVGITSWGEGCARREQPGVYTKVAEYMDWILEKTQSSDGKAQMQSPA
Human plasma kallikrein, sequence (P03952 20-390 partner limits assumed): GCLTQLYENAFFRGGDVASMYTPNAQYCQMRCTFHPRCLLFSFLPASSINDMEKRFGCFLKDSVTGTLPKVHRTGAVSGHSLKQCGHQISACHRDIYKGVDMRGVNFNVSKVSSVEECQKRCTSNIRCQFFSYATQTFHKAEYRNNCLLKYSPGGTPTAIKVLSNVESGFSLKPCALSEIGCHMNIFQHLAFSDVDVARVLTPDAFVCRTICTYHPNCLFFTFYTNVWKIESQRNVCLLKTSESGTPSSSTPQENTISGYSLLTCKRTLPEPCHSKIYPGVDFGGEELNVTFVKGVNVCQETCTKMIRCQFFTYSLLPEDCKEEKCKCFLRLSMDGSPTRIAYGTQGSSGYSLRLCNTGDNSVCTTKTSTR
Coagulation factor XIa, sequence (P03951 388-625 limits assumed): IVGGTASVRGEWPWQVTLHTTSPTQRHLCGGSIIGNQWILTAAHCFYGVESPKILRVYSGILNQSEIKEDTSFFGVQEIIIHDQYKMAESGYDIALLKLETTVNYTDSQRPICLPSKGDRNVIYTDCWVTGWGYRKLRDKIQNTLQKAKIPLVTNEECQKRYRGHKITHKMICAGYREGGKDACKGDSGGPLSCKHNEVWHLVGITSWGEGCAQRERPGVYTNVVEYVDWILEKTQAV
Coagulation factor XIa, sequence (P03951 19-387 partner limits assumed): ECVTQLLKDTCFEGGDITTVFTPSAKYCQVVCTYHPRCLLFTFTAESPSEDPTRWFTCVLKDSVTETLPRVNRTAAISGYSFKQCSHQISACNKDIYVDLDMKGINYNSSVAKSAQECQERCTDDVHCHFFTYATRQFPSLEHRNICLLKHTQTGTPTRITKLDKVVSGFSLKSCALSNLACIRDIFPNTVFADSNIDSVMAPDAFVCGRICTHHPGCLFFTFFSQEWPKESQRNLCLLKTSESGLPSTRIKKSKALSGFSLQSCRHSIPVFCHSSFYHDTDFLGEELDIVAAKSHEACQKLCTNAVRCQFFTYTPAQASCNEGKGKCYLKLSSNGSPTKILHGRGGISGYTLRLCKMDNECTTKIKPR

As for `O=C1Nc2ccc(Cl)c(F)c2[C@]2(CCN(c3cc(C(=O)NCc4ccc(Cn5ccccc5=O)cc4)ccn3)C2)O1` [Example 16, (S)-2-(6-Chloro-5-fluoro-2-oxo-1,2-dihydrospiro[benzo[d][1,3]oxazine-4,3′-pyrrolidin]-1′-yl)-N-(4-((2-oxopyridin-1(2H)-yl)methyl)benzyl)isonicotinamide], the IC50 (usually the midpoint of a concentration-inhibition curve) amounted to 10 µM at Coagulation factor XIa and 0.05 µM at Human plasma kallikrein.

On to `O=C1Nc2ccc(Cl)c(F)c2[C@]2(CCN(c3cc(C(=O)NCc4ccc(N5CCC(C(F)(F)F)C5)nc4)cnn3)C2)O1` (stereo in doubt) [Example 9, (S)-6-(6-Chloro-5-fluoro-2-oxo-1,2-dihydrospiro[benzo[d][1,3]oxazine-4,3′-pyrrolidin]-1′-yl)-N-((6-(3-(trifluoromethyl)pyrrolidin-1-yl)pyridin-3-yl)methyl)pyridazine-4-carboxamide], for which the IC50 on Coagulation factor XIa was found to be 10 µM; at Human plasma kallikrein, 0.0075 µM.

On to `O=C1Nc2ccc(Cl)c(F)c2[C@]2(CCN(c3cncc(C(=O)NCc4ccc(N5CC(F)C5)nc4)n3)C2)O1` [Example 33, (S)-6-(6-Chloro-5-fluoro-2-oxo-1,2-dihydrospiro[benzo[d][1,3]oxazine-4,3′-pyrrolidin]-1′-yl)-N-((6-(3-fluoroazetidin-1-yl)pyridin-3-yl)methyl)pyrazine-2-carboxamide], for which the concentration for half-maximal inhibition (IC50) at Coagulation factor XIa is 10 µM; on Human plasma kallikrein it was 0.0254 µM.

As for `O=C1Nc2ccc(Cl)c(F)c2[C@]2(CCN(c3cncc(C(=O)NCc4ccc5ccc(=O)oc5c4)n3)C2)O1` [Example 30, (S)-6-(6-Chloro-5-fluoro-2-oxo-1,2-dihydrospiro[benzo[d][1,3]oxazine-4,3′-pyrrolidin]-1′-yl)-N-((2-oxo-2H-chromen-7-yl)methyl)pyrazine-2-carboxamide], the IC50 on Coagulation factor XIa is 10 µM; at Human plasma kallikrein it was 0.0209 µM.

For the molecule `O=C1Nc2ccc(Cl)c(F)c2[C@]2(CCN(c3cncc(C(=O)NCc4ccc(N5CCOCC5)nc4)n3)C2)O1` [Example 42, (S)-6-(6-Chloro-5-fluoro-2-oxo-1,2-dihydrospiro[benzo[d][1,3]oxazine-4,3′-pyrrolidin]-1′-yl)-N-((6-morpholinopyridin-3-yl)methyl)pyrazine-2-carboxamide], the figures for the IC50 on Coagulation factor XIa and at Human plasma kallikrein were 10 µM and 0.0118 µM, respectively.

In the case of `C[C@H]1CCN(c2ccc(CNC(=O)c3cncc(N4CC[C@]5(C4)OC(=O)Nc4ccc(Cl)c(F)c45)n3)cn2)C1` [Example 1, (S)-6-(6-Chloro-5-fluoro-2-oxo-1,2-dihydrospiro[benzo[d][1,3]oxazine-4,3′-pyrrolidin]-1′-yl)-N-((6-((S)-3-methylpyrrolidin-1-yl)pyridin-3-yl)methyl)pyrazine-2-carboxamide], the IC50 was found to be 10 µM on Coagulation factor XIa and 0.0193 µM on Human plasma kallikrein.

As for `Cc1cnn(Cc2ccc(CNC(=O)c3ccnc(N4CC[C@]5(C4)OC(=O)Nc4ccc(Cl)c(F)c45)n3)cc2)c1` [Example 24, (S)-2-(6-Chloro-5-fluoro-2-oxo-1,2-dihydrospiro[benzo[d][1,3]oxazine-4,3′-pyrrolidin]-1′-yl)-N-(4-((4-methyl-1H-pyrazol-1-yl)methyl)benzyl)pyrimidine-4-carboxamide], the IC50 at Coagulation factor XIa was found to be 10 µM; on Human plasma kallikrein it was 0.0136 µM.

Consider `O=C1Nc2ccc(Cl)c(F)c2[C@]2(CCN(c3cncc(C(=O)NCc4ccc(N5CC[C@H](F)C5)nc4)n3)C2)O1` [Example 38, (S)-6-(6-Chloro-5-fluoro-2-oxo-1,2-dihydrospiro[benzo[d][1,3]oxazine-4,3′-pyrrolidin]-1′-yl)-N-((6-((S)-3-fluoropyrrolidin-1-yl)pyridin-3-yl)methyl)pyrazine-2-carboxamide], for which the IC50 at Coagulation factor XIa is 10 µM; at Human plasma kallikrein it was 0.0358 µM.

Consider `N#CC1(F)CN(Cc2ccc(CNC(=O)c3cnnc(N4CC[C@]5(C4)OC(=O)Nc4ccc(Cl)c(F)c45)c3)cc2)C1` [Example 50, (S)-6-(6-Chloro-5-fluoro-2-oxo-1,2-dihydrospiro[benzo[d][1,3]oxazine-4,3′-pyrrolidin]-1′-yl)-N-(4-((3-cyano-3-fluoroazetidin-1-yl)methyl)benzyl)pyridazine-4-carboxamide], for which the IC50 was 10 µM at Coagulation factor XIa and 0.0266 µM at Human plasma kallikrein.

`O=C1Nc2ccc(Cl)c(F)c2[C@]2(CCN(c3cncc(C(=O)NCc4ccc(Cn5ccccc5=O)nc4)c3)C2)O1` [Example 15, (S)-5-(6-Chloro-5-fluoro-2-oxo-1,2-dihydrospiro[benzo[d][1,3]oxazine-4,3′-pyrrolidin]-1′-yl)-N-((6-((2-oxopyridin-1(2H)-yl)methyl)pyridin-3-yl)methyl)nicotinamide]: the IC50 at Coagulation factor XIa was 10 µM; at Human plasma kallikrein it was 0.0006 µM.

Regarding `O=C1Nc2ccc(Cl)c(F)c2[C@]2(CCN(c3cc(C(=O)NCc4ccc(N5CC[C@H](F)C5)nc4)cnn3)C2)O1` [Example 5, (S)-6-(6-Chloro-5-fluoro-2-oxo-1,2-dihydrospiro[benzo[d][1,3]oxazine-4,3′-pyrrolidin]-1′-yl)-N-((6-((S)-3-fluoropyrrolidin-1-yl)pyridin-3-yl)methyl)pyridazine-4-carboxamide], the results for the IC50 on Coagulation factor XIa and at Human plasma kallikrein were 5.65 µM and 0.003 µM, respectively.

Turning to `C[C@H]1CCN(c2ccc(CNC(=O)c3cncc(N4CC[C@]5(C4)OC(=O)Nc4ccc(Cl)c(F)c45)c3)cn2)C1` [Example 3, (S)-5-(6-Chloro-5-fluoro-2-oxo-1,2-dihydrospiro[benzo[d][1,3]oxazine-4,3′-pyrrolidin]-1′-yl)-N-((6-((S)-3-methylpyrrolidin-1-yl)pyridin-3-yl)methyl)nicotinamide], the half-maximal inhibitory concentration (IC50) was determined as 10 µM on Coagulation factor XIa and 0.0095 µM at Human plasma kallikrein.

Consider `O=C1Nc2ccc(Cl)c(F)c2[C@]2(CCN(c3cncc(C(=O)NCc4ccc(N5CC6CC6C5)nc4)n3)C2)O1` (stereo partly drawn) [Example 40, N-((6-(3-Azabicyclo[3.1.0]hexan-3-yl)pyridin-3-yl)methyl)-6-((S)-6-chloro-5-fluoro-2-oxo-1,2-dihydrospiro[benzo[d][1,3]oxazine-4,3′-pyrrolidin]-1′-yl)pyrazine-2-carboxamide], for which the IC50 on Coagulation factor XIa stood at 10 µM; at Human plasma kallikrein, 0.0186 µM.

In the case of `O=C1Nc2ccc(Cl)c(F)c2[C@]2(CCN(c3cncc(C(=O)NCc4ccc(N5CC[C@@H](F)C5)nc4)n3)C2)O1` [Example 39, (S)-6-(6-Chloro-5-fluoro-2-oxo-1,2-dihydrospiro[benzo[d][1,3]oxazine-4,3′-pyrrolidin]-1′-yl)-N-((6-((R)-3-fluoropyrrolidin-1-yl)pyridin-3-yl)methyl)pyrazine-2-carboxamide], the IC50 on Coagulation factor XIa stood at 10 µM; on Human plasma kallikrein, 0.0258 µM.

In the case of `CN1CC(F)(F)C[C@H]1c1ccc(CNC(=O)c2cnnc(N3CCC4(C3)OC(=O)Nc3ccc(Cl)c(F)c34)c2)cc1` (stereo partly drawn) [Example 12, (S)-6-(6-Chloro-5-fluoro-2-oxo-1,2-dihydrospiro[benzo[d][1,3]oxazine-4,3′-pyrrolidin]-1′-yl)-N-(4-(4,4-difluoro-1-methylpyrrolidin-2-yl)benzyl)pyridazine-4-carboxamide], the half-maximal inhibitory concentration (IC50) at Coagulation factor XIa worked out at 10 µM; at Human plasma kallikrein it was 0.0396 µM.

On to `Cc1cnn(Cc2ccc(CNC(=O)c3cnnc(N4CC[C@]5(C4)OC(=O)Nc4ccc(Cl)c(F)c45)c3)cc2)c1` [Example 23, (S)-6-(6-Chloro-5-fluoro-2-oxo-1,2-dihydrospiro[benzo[d][1,3]oxazine-4,3′-pyrrolidin]-1′-yl)-N-(4-((4-methyl-1H-pyrazol-1-yl)methyl)benzyl)pyridazine-4-carboxamide], for which the half-maximal inhibitory concentration (IC50) on Coagulation factor XIa was determined as 10 µM; at Human plasma kallikrein, 0.0005 µM.
